From US8735436B2, “Polyunsaturated fatty acids for the treatment of diseases related to cardiovascular, metabolic and inflammatory disease areas” (Pronova Biopharma Norge AS, priority 2009, dated 2014)
pEC50: −log10 of the molar value.

Columns and labels:
Assay in all cases: PPAR activation in vitro, mammalian-one-hybrid (M1H) GAL4-PPAR-LBD luciferase reporter assay
Format in all cases: cell-based
PPARγ = target: T1, PPARγ (Homo sapiens, UniProt P37231); conditions: for PPARγ Efficacy: HEK293 cells, efficacy of positive control (rosiglitazone) set to 100%; for pEC50: transiently transfected HEK293 cells, compound incubation 16-20 h, six concentrations in duplicate
T1 construct: expressed in transfected cells; host or cells: HEK293
T1 sequence (P37231 238-503 limits assumed): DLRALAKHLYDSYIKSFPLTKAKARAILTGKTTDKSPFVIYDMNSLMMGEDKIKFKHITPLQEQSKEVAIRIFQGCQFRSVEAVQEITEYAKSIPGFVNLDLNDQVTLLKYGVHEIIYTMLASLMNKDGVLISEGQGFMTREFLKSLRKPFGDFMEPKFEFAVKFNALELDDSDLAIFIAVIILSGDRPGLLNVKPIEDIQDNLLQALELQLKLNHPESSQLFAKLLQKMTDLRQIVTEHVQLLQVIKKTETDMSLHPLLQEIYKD
Protocol: (§1) The assays were carried out in vitro using mammalian-one-hybrid assays (M1H) comprising GAL4-DNA binding domain-PPAR-LBD fusion constructs in conjunction with 5×GAL4-sites driven Photinus pyralis luciferase reporter constructs in transiently transfected HEK293 cells.
(§2) The cells were transfected 4-6 h and grown overnight before compounds were added. Compound incubation was 16-20 h.
(§3) Renilla reniformis luciferase, driven by a constitutive promoter, was included as internal control to improve experimental accuracy.
(§4) The compounds (A-C) and a positive control were tested at six different concentrations in duplicate. The positive controls were GW7647 (PPARα), GW501516 (PPARδ) and rosiglitazone (PPARγ). The efficacy of the controls were set to 100%.

PPARα = target: T2, PPARα (Homo sapiens, UniProt Q07869); conditions: for PPARα Efficacy: HEK293 cells, efficacy of positive control (GW7647) set to 100%; for pEC50: transiently transfected HEK293 cells, compound incubation 16-20 h, six concentrations in duplicate
T2 construct: expressed in transfected cells; host or cells: HEK293
T2 sequence (Q07869 239-466 limits assumed): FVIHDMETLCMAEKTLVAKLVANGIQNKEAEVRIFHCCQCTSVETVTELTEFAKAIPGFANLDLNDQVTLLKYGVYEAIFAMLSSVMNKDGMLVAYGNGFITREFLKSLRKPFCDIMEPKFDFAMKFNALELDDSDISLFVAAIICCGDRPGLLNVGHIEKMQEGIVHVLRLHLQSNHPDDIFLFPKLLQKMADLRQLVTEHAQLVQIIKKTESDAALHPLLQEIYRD
Protocol: as §1, §2, §3, §4

PPARδ = target: T3, PPARδ (Homo sapiens, UniProt Q03181); conditions: for PPARδ Efficacy: HEK293 cells, efficacy of positive control (GW501516) set to 100%; for PPARδ EC50: transiently transfected HEK293 cells, compound incubation 16-20 h, six concentrations in duplicate
T3 construct: expressed in transfected cells; host or cells: HEK293
T3 sequence (Q03181 211-439 limits assumed): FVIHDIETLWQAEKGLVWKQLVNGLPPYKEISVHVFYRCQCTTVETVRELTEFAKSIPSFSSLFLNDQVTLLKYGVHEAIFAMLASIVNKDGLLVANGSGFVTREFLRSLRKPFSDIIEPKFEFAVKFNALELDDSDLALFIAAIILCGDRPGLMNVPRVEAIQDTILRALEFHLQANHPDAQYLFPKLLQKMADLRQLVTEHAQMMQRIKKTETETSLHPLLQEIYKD
Protocol: as §1, §2, §3, §4

| SMILES | PPARγ Efficacy (PPARγ) | pEC50 (PPARγ) | PPARα Efficacy (PPARα) | pEC50 (PPARα) | PPARδ Efficacy (PPARδ) | PPARδ EC50 (PPARδ) |
| --- | --- | --- | --- | --- | --- | --- |
| CC/C=C\C/C=C\C/C=C\C/C=C\C/C=C\CCCCOC(CC)C(=O)O (stereo not drawn) [A] | 22% | 6.09 | 82% | 6.51 | inactive | inactive |
| CC/C=C\C/C=C\C/C=C\C/C=C\C/C=C\CCCCO[C@@H](CC)C(=O)O [B] | 27% | 6.19 | 86% | 6.39 | inactive | inactive |
| CC/C=C\C/C=C\C/C=C\C/C=C\C/C=C\CCCCO[C@H](CC)C(=O)O [C] | 25% | 6.29 | 54% | 6.78 | inactive | inactive |
